Data as given in PMC11202169, “A Novel Fluorescence-Based Microplate Assay for High-Throughput Screening of hSULT1As Inhibitors” (Biosensors, 2024).
“And” between values parts separate entries of the source, which are not always exact repeats. Equal values may be shown once. Each block holds one compound with its values, some of them ahead of it.

What was measured:
Format in all cases: biochemical
[1] = biological target: T1, hSULT1A2 (Homo sapiens, UniProt P50226); assay: Fluorescence-based microplate inhibition assay, hSULT1A2-catalyzed HN-241 4-O-sulfation; conditions: for Residue activity (%) hSULT1A2 / remaining activity at 10 µM: test compound 10 μM, HN-241 5 μM, 15 min; for remaining activity at 10 µM: 0.25 h, read-out: Residue activity (%) hSULT1A2; for IC50: hSULT1A2-catalyzed HN-241 4-O-sulfation
T1 construct: 6-histidine tag (N); TEV site (N); made in house; host or cells: Escherichia coli BL21 (DE3), pET29a(+)

[2] = biological target: T2, hSULT1A3 (Homo sapiens, UniProt P0DMM9); assay: Fluorescence-based microplate inhibition assay, hSULT1A3-catalyzed HN-241 4-O-sulfation; conditions: for Residue activity (%) hSULT1A3 / activity at 10 µM: test compound 10 μM, HN-241 10 μM, 15 min; for activity at 10 µM: read-out: Residue activity (%) hSULT1A3; for IC50: hSULT1A3-catalyzed HN-241 4-O-sulfation
T2 construct: 6-histidine tag (N); TEV site (N); made in house; host or cells: Escherichia coli BL21 (DE3), pET29a(+)

[3] = biological target: T3, hSULT1A1 (Homo sapiens, UniProt P50225); assay: Fluorescence-based microplate inhibition assay, hSULT1A1-catalyzed HN-241 4-O-sulfation; conditions: for Residue activity (%) hSULT1A1 / activity at 1 µM: test compound 1 μM, HN-241 1 μM, 15 min; for activity at 1 µM: read-out: Residue activity (%) hSULT1A1; for IC50: hSULT1A1-catalyzed HN-241 4-O-sulfation;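 for all read-outs here: reaction started with 200 µM PAPS at 37 °C, fluorescence read continuously (Ex 350 nm, Em 450 nm), activity expressed relative to DMSO-only control without inhibitor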
T3 construct: 6-histidine tag (N); TEV site (N); made in house; host or cells: Escherichia coli BL21 (DE3), pET29a(+)
T3 sequence (P50225 whole entry): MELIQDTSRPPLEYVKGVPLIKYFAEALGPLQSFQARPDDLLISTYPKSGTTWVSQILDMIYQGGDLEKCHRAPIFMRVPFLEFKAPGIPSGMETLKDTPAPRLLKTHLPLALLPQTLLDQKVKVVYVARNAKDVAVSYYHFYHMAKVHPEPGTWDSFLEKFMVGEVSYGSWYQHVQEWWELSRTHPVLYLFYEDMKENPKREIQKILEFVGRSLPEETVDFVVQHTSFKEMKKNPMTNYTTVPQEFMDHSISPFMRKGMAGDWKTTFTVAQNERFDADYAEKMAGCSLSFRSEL

T2 sequence (P0DMM9 whole entry): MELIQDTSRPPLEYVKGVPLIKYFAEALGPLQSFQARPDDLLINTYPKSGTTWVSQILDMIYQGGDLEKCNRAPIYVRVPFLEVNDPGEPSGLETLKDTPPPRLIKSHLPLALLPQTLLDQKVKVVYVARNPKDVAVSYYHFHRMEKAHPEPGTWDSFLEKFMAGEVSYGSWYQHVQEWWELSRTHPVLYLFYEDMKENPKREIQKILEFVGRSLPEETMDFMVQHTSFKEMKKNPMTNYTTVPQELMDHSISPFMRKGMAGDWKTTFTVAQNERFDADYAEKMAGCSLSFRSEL
T1 sequence (P50226 whole entry): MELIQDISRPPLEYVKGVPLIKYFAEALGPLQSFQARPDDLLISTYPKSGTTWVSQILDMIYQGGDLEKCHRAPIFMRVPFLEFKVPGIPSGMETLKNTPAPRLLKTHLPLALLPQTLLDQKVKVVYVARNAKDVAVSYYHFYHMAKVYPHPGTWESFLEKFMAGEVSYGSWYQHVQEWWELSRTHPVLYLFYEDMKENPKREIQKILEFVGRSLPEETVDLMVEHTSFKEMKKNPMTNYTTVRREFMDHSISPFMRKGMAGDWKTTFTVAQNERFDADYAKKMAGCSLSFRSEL

SMILES: C[C@H](CCC(=O)O)[C@H]1CC[C@H]2[C@@H]3[C@H](O)C[C@@H]4C[C@H](O)CC[C@]4(C)[C@H]3CC[C@]12C [Chenodeoxycholic acid]
- remaining activity at 10 µM [1]: 98.2%
- activity at 10 µM [2]: 129%
- activity at 1 µM [3]: 96.5%

SMILES: C[C@H]1C(=O)O[C@@H]2CCN3CC=C(COC(=O)[C@](C)(O)[C@]1(C)O)[C@H]23 [Crotaline]
- Residue activity (%) hSULT1A2 [1]: 97.30%
- Residue activity (%) hSULT1A3 [2]: 122.18%
- Residue activity (%) hSULT1A1 [3]: 128.03%

SMILES: COc1cc(O)c2c(c1)C(=O)c1cc(C)cc(O)c1C2=O [Emodin-3-methyl ether]
- Residue activity (%) hSULT1A2 [1]: 89.81%
- Residue activity (%) hSULT1A3 [2]: 103.18%
- Residue activity (%) hSULT1A1 [3]: 54.41%

SMILES: Cc1cc(O)c2c(c1)C(=O)c1cc(O)cc(O)c1C2=O [Emodin]
- remaining activity at 10 µM [1]: 0%
- IC50 [1]: 360 ± 22.6 nM
- activity at 10 µM [2]: 65%
- IC50 [3]: 76.5 ± 5.28 nM
- activity at 1 µM [3]: 0%

SMILES: COc1ccc(-c2oc3c(CC=C(C)C)c(O[C@@H]4O[C@H](CO)[C@@H](O)[C@H](O)[C@H]4O)cc(O)c3c(=O)c2O[C@@H]2O[C@@H](C)[C@H](O)[C@@H](O)[C@H]2O[C@@H]2O[C@@H](C)[C@H](O)[C@@H](O)[C@H]2O)cc1 [Epimedin C]
- Residue activity (%) hSULT1A2 [1]: 95.77%
- Residue activity (%) hSULT1A3 [2]: 107.48%
- Residue activity (%) hSULT1A1 [3]: 108.62%

SMILES: CC(C)=CC/C=C(/C)[C@H]1CC[C@]2(C)[C@@H]1[C@H](O)C[C@@H]1[C@@]3(C)CC[C@H](O)C(C)(C)[C@@H]3[C@@H](O[C@@H]3O[C@H](CO)[C@@H](O)[C@H](O)[C@H]3O[C@@H]3O[C@@H](C)[C@H](O)[C@@H](O)[C@H]3O)C[C@]12C [Ginsenoside F4]
- Residue activity (%) hSULT1A2 [1]: 89.89%
- Residue activity (%) hSULT1A3 [2]: 99.83%
- Residue activity (%) hSULT1A1 [3]: 99.89%

SMILES: CC(C)=CCC[C@](C)(O)[C@H]1CC[C@]2(C)[C@@H]1[C@H](O)C[C@@H]1[C@@]3(C)CC[C@H](O)C(C)(C)[C@@H]3[C@@H](O[C@@H]3O[C@H](CO)[C@@H](O)[C@H](O)[C@H]3O[C@@H]3O[C@H](CO)[C@@H](O)[C@H](O)[C@H]3O)C[C@]12C [Ginsenoside Rf]
- remaining activity at 10 µM [1]: 104%
- activity at 10 µM [2]: 104%
- activity at 1 µM [3]: 102%

SMILES: CC(C)=CCC[C@](C)(O)[C@H]1CC[C@]2(C)[C@@H]1[C@H](O)C[C@@H]1[C@@]3(C)CC[C@H](O)C(C)(C)[C@@H]3[C@@H](O[C@@H]3O[C@H](CO)[C@@H](O)[C@H](O)[C@H]3O[C@@H]3O[C@@H](C)[C@H](O)[C@@H](O)[C@H]3O)C[C@]12C [Ginsenoside Rg2]
- remaining activity at 10 µM [1]: 106%
- activity at 10 µM [2]: 100%
- activity at 1 µM [3]: 113%

SMILES: C=C(CCC=C(C)C)[C@H]1CC[C@]2(C)[C@@H]1[C@H](O)C[C@@H]1[C@@]3(C)CC[C@H](O)C(C)(C)[C@@H]3[C@@H](O[C@@H]3O[C@H](CO)[C@@H](O)[C@H](O)[C@H]3O[C@@H]3O[C@@H](C)[C@H](O)[C@@H](O)[C@H]3O)C[C@]12C [Ginsenoside Rg6]
- Residue activity (%) hSULT1A2 [1]: 103.59%
- Residue activity (%) hSULT1A3 [2]: 124.68%
- Residue activity (%) hSULT1A1 [3]: 100.32%

SMILES: CC(C)=CCC[C@](C)(O)[C@H]1CC[C@]2(C)[C@@H]1[C@H](O)C[C@@H]1[C@@]3(C)CC[C@H](O)C(C)(C)[C@@H]3[C@@H](O[C@@H]3O[C@H](CO)[C@@H](O)[C@H](O)[C@H]3O)C[C@]12C [Ginsenoside Rh1]
- remaining activity at 10 µM [1]: 96.5%
- activity at 10 µM [2]: 100%
- activity at 1 µM [3]: 114%

SMILES: C=C(CCC=C(C)C)[C@H]1CC[C@]2(C)[C@@H]1[C@H](O)C[C@@H]1[C@@]3(C)CC[C@H](O[C@@H]4O[C@H](CO)[C@@H](O)[C@H](O)[C@H]4O)C(C)(C)[C@@H]3CC[C@]12C [Ginsenoside Rk2]
- Residue activity (%) hSULT1A2 [1]: 106.88%
- Residue activity (%) hSULT1A3 [2]: 94.83%
- Residue activity (%) hSULT1A1 [3]: 97.02%

SMILES: CC(C)=CCOc1c2occc2cc2ccc(=O)oc12 [Imperatorin]
- remaining activity at 10 µM [1]: 94.3%
- activity at 10 µM [2]: 128%
- activity at 1 µM [3]: 101%

SMILES: COc1cc(-c2oc3cc(O)cc(O)c3c(=O)c2O)ccc1O [Isorhamnetin]
- remaining activity at 10 µM [1]: 0.39%
- activity at 10 µM [2]: 58.3%
- activity at 1 µM [3]: 1.36%

SMILES: O=C1C[C@@H](c2ccc(O)cc2)Oc2cc(O)ccc21 [Liquiritigenin]
- Residue activity (%) hSULT1A2 [1]: 25.92%
- Residue activity (%) hSULT1A3 [2]: 76.68%
- Residue activity (%) hSULT1A1 [3]: 58.91%

Results, then the compound that gave them:

- Residue activity (%) hSULT1A2 [1]: 22.81%
- Residue activity (%) hSULT1A3 [2]: 54.16%
- Residue activity (%) hSULT1A1 [3]: 2.77%
SMILES: COc1ccc(-c2coc3cc(O[C@@H]4O[C@H](CO)[C@@H](O)[C@H](O)[C@H]4O)ccc3c2=O)cc1O [Calycosin-7-O-β-D-glucoside]

- Residue activity (%) hSULT1A2 [1]: 34.41% and 31.76%
- Residue activity (%) hSULT1A3 [2]: 120.65% and 88.76%
- Residue activity (%) hSULT1A1 [3]: 63.24% and 71.38%
SMILES: COc1cc(O)cc(O)c1C(=O)/C=C/c1ccccc1 [Cardamonin]

- remaining activity at 10 µM [1]: 0.09%
- IC50 [2]: 1520 ± 79.1 nM
- activity at 10 µM [2]: 5.28%
- activity at 1 µM [3]: 1.84%
SMILES: COc1cc2c(c(OC)c1OC)C(=O)c1c(cc(C)c(O)c1OC)C2=O [Chrysoobtusin]

- remaining activity at 10 µM [1]: 45.4%
- activity at 10 µM [2]: 99.3%
- activity at 1 µM [3]: 3.52%
SMILES: Cc1cc(O)c2c(c1)C(=O)c1cccc(O)c1C2=O [Chrysophanic acid]

- remaining activity at 10 µM [1]: 57%
- activity at 10 µM [2]: 39.1%
- activity at 1 µM [3]: 0%
SMILES: COc1ccc(-c2cc(=O)c3c(O)cc(O)cc3o2)cc1O [Diosmetin]

- remaining activity at 10 µM [1]: 111%
- activity at 10 µM [2]: 121%
- activity at 1 µM [3]: 106%
SMILES: C=C(C)[C@@H]1CC[C@]2(C(=O)O)CC[C@]3(C)[C@H](CC[C@@H]4[C@@]5(C)CC[C@@H](O)C(C)(C)[C@@H]5CC[C@]43C)[C@@H]12 [Epibetulinic acid]

- remaining activity at 10 µM [1]: 111%
- activity at 10 µM [2]: 104%
- activity at 1 µM [3]: 65.5%
SMILES: C[C@@H]1O[C@@H](OC[C@H]2O[C@@H](Oc3cc(O)c4c(c3)O[C@H](c3ccc(O)c(O)c3)CC4=O)[C@H](O)[C@@H](O)[C@@H]2O)[C@H](O)[C@H](O)[C@H]1O [Eriocitrin]

- Residue activity (%) hSULT1A2 [1]: 97.40%
- Residue activity (%) hSULT1A3 [2]: 114.83%
- Residue activity (%) hSULT1A1 [3]: 98.37%
SMILES: COc1cc2c(=O)c(-c3ccc(O)cc3)coc2cc1O[C@@H]1O[C@H](CO)[C@@H](O)[C@H](O)[C@H]1O [Glycitin]

- remaining activity at 10 µM [1]: 112%
- activity at 10 µM [2]: 121%
- activity at 1 µM [3]: 106%
SMILES: CC1(C)[C@@H](O[C@H]2O[C@H](C(=O)O)[C@@H](O)[C@H](O)[C@H]2O[C@@H]2O[C@H](C(=O)O)[C@@H](O)[C@H](O)[C@H]2O)CC[C@]2(C)[C@H]3C(=O)C=C4[C@@H]5C[C@@](C)(C(=O)O)CC[C@]5(C)CC[C@@]4(C)[C@]3(C)CC[C@@H]12 [Glycyrrhizic acid]

- remaining activity at 10 µM [1]: 0%
- IC50 [1]: 110 ± 14.7 nM
- IC50 [2]: 2130 ± 182 nM
- activity at 10 µM [2]: 9.46%
- IC50 [3]: 18.9 ± 1.17 nM
- activity at 1 µM [3]: 0%
SMILES: O=c1cc(-c2ccc(Oc3c(O)cc4oc(-c5ccc(O)cc5)cc(=O)c4c3O)cc2)oc2cc(O)cc(O)c12 [Hinokiflavone]

- remaining activity at 10 µM [1]: 85.1%
- activity at 10 µM [2]: 105%
- activity at 1 µM [3]: 85.5%
SMILES: COc1ccc(-c2oc3c(CC=C(C)C)c(O[C@@H]4O[C@H](CO)[C@@H](O)[C@H](O)[C@H]4O)cc(O)c3c(=O)c2O[C@@H]2O[C@@H](C)[C@H](O)[C@@H](O)[C@H]2O)cc1 [Icariin]

- Residue activity (%) hSULT1A2 [1]: 103.62%
- Residue activity (%) hSULT1A3 [2]: 104.97%
- Residue activity (%) hSULT1A1 [3]: 91.81%
SMILES: COc1ccc(-c2oc3c(CC=C(C)C)c(O[C@@H]4O[C@H](CO)[C@@H](O)[C@H](O)[C@H]4O)cc(O)c3c(=O)c2O)cc1 [Icariside I]

- remaining activity at 10 µM [1]: 89.5%
- activity at 10 µM [2]: 117%
- activity at 1 µM [3]: 61.3%
SMILES: CC(C)Oc1ccc2c(=O)c(-c3ccccc3)coc2c1 [Ipriflavone]

- remaining activity at 10 µM [1]: 106%
- activity at 10 µM [2]: 92.1%
- activity at 1 µM [3]: 92.5%
SMILES: CC(C)=CCOc1c2ccoc2cc2oc(=O)ccc12 [Isoimperatorin]

- remaining activity at 10 µM [1]: 68.4%
- activity at 10 µM [2]: 88%
- activity at 1 µM [3]: 15.8%
SMILES: COc1cc(O)c(CC=C(C)C)c2c1C(=O)CC(c1ccc(O)cc1)O2 (stereo not shown) [Isoxanthohumol]

- remaining activity at 10 µM [1]: 0.21%
- activity at 10 µM [2]: 30.9%
- IC50 [3]: 5.37 ± 0.18 nM
- activity at 1 µM [3]: 0%
SMILES: COc1c(/C=C/C(=O)c2ccc(O)c(CC=C(C)C)c2)ccc(O)c1O [Licochalcone D]
